The text below walks through data of patent publication US20150352164A1, “COMPOSITION COMPRISING THEANINE AND AN EXTRACT OF INULA RACEMOSA” (CONOPCO, INC., D/B/A UNILEVER, priority 2012, published 2015).

The assay concerns 3T3L1 (mouse preadipocytes), differentiated to mature adipocytes; adiponectin secretion. Nature of the assay: Adiponectin assay: adiponectin secretion from differentiated 3T3L1 adipocytes, ELISA of supernatants. The assay is classed as cell-based. As to conditions: for % of adiponectin (control cells taken as hundred): 48 hrs. On the procedure:
Adiponectin Assay Protocol • 3T3L1 (mouse preadipocytes) were plated on a 96 well plate at a density of 3*10^3 cells per well; • After 5 days of post confluency (a condition where the cells form a uniform layer) the cells were differentiated (a process where premature adipocytes are transformed to mature adipocytes) in differentiation medium for 10 days; • On the 11th day the matured adipocytes were treated with non cytotoxic concentrations (concentrations stated below) of the inula racemosa extract and theanine; • The cells were incubated for 48 hrs and supernatants were collected and stored. They were analysed to detect level of Adiponectin by ELISA; • The efficacy of the test ingredient was evaluated with respect to the untreated control (media control); • If any of the tested combinations of inula racemosa extract and theanine on increased adiponectin level was larger in a statistically significant way than the additive effect or individual components, then the particular combination is considered to be synergistic. To investigate the efficacy of inula racemosa and theanine in increasing adiponectin secretion from 3T3L1, the cells were treated with varying concentrations of inula racemosa (as obtained set out herein in the Materials section) and theanine in cell culture medium. The % of adiponectin from control cells were taken as hundred, upon which the treatment values were calculated. […] A range of combination varying amounts of inula racemosa extract and theanine were investigated on its joint ability for adiponectin secretion. The combinations used were (weight ratio's theanine:inula racemosa extract): 100:1 ([…]), 100:10,000 (H). This was achieved via dissolution of the components in aqueous stock solutions.
In general terms: An ELISA detects its analyte on a solid surface through an enzyme-linked reagent.

Take `CCNC(=O)CCC(N)C(=O)O` (stereo not shown) [Theanine, 2-Amino-4-(ethylcarbamoyl)butyric acid]: the “% of adiponectin (control cells taken as hundred)” value (“% of adiponectin” for short) (0.00001% wt of inula r. extract or theanine in cell culture medium) is 106.7 +/− 7.4%; the “% of adiponectin” value (0.00002% wt of inula r. extract or theanine in cell culture medium) is listed as 107.0 +/− 7.0%; the “% of adiponectin” value (0.00005% wt of inula r. extract or theanine in cell culture medium) is 136.7 +/− 7.3%; the “% of adiponectin” value (0.0001% wt of inula r. extract or theanine in cell culture medium) is listed as 141.7 +/− 1.6%; the “% of adiponectin” value (0.0005% wt of inula r. extract or theanine in cell culture medium) is 145.8 +/− 8.2%; the “% of adiponectin” value (0.001% wt of inula r. extract or theanine in cell culture medium) is listed as 156.0 +/− 8.5%. The “adiponectin levels, in-vitro, separately” value (varying concentrations, 3T3L1 cells) is “increased adiponectin levels”.
